Where a name gives a salt, the structure may show the parent alone. Read-outs that look alike come from different tables or passages of the source.

In assay [1] the test system is coronary artery diameter. Description: Coronary Artery Diameter Increasing Action in anesthetized dogs. It is filed as in vivo, adult mongrel dogs. The note with it: for Coronary artery diameter (relative to nitroglycerin): maximal change as ratio to 10 μg/kg nitroglycerin. As to the method: (§1) Adult mongrel dogs were thoracotomized under anesthesia with α-chloralose and the circumflex branch of the left coronary artery was […]; a pair of ultrasonic crystals were attached to the tunica extima for measuring the diameter of the coronary artery whereas an electromagnetic flow probe was attached to the peripheral side to measure the coronary blood flow. Nitroglycerin, dipyridamole and each test compound were administered intravenously for comparison. Each test compound was dissolved in dimethylformamide and diluted sequentially with polyethylene glycol 200 and water to give respective proportions of 20, 50 and 30% (v/v). The results are shown in Table 3, in which the maximal changes in the diameter of the coronary artery and the coronary blood flow are expressed in terms of the ratio to the respective changes caused by 10 μg/kg of nitroglycerin.

Assay [2] deals with coronary blood flow. The assay can be described thus: Coronary blood flow in anesthetized dogs. It is filed as in vivo, adult mongrel dogs. The following applies: maximal change as ratio to 10 μg/kg nitroglycerin. The method, then:
as §1

In assay [3] the target is T1, PDE type V (Canis lupus familiaris, UniProt O77746).
T1 construct: PDE was purified from the aorta in a dog; from tissue; host or cells: dog aorta
Description: PDE Inhibiting Activity, type V (cGMP-PDE). It is filed as biochemical, dog (canine aorta). The note with it: PDE type V from canine aorta, 1 μM substrate, pH 7.5; read-out: Inhibition Activity IC50, Type V. The method, then:
(§2) On the basis of the method of Lugnier et al. (Biochem. Pharmacol., 35, 1743-1751, 1986), PDE was purified from the aorta in a dog. The canine aorta was minced and homogenized with a Waring Blender and a glass homogenizer in six volumes of a Tris-HCl buffer solution (pH 7.5, 20 mM) containing 2 mM magnesium acetate, 5 mM ethylenediaminetetraacetic acid (EDTA), 100 μg/mL of phenylmethylsulforyl fluoride and 15 mM 2-mercaptoethanol (2-ME), and centrifuged at 1200 xg for 30 min. The supernatant was separated and salted out with ammonium sulfate which was added to 45% saturation. The resulting precipitated fraction was resuspended in a Tris-HCl buffer solution (pH 7.5, 20 mM) containing 2 mM magnesium acetate and 1 mM 2-ME, dialyzed overnight and applied to a DEAE-trisacryl column (DEAE […] M:IBF). By elution with a sodium chloride gradient (0-0.4 M), PDE types V and III were separated from the other isozymes. The supernatant fraction of 45% saturated ammonium sulfate was further mixed with ammonium sulfate to 65% saturation and salted out. The resulting precipitated fraction was similarly applied to the DEAE-trisacryl column and eluted by a sodium chloride gradient (0-0.4 M) so as to separate PDE type I.
The thus obtained PDE types V, III and I were measured for their activity in accordance with the method of Thompson et al. (Adv. Cyclic Nucleotide Res., 10, 69-72, 1979) and the method of Wells et al. (Biochim. Biophys. Acta, 384, 430-443, 1975). Specifically, a purified PDE sample was added to 50 mM Tris-HCl buffer solution (pH 7.5) containing 1 μM of substrate cGMP or cAMP (containing tritium-labelled cGMP or cAMP), 1 mM EGTA and 2 mM magnesium acetate. […] The activity of each test compound was determined as a percentage of the DPE activity measured when it was added as a dimethyl sulfoxide solution (DMSO) and its IC50 (50% inhibition concentration) was calculated by the probit method. […]

In assay [4] the target is T2, PDE type III (Canis lupus familiaris, UniProt A0A8I3NYE0).
T2 construct: PDE was purified from the aorta in a dog; from tissue; host or cells: dog aorta
T2 sequence (A0A8I3NYE0 1-1135): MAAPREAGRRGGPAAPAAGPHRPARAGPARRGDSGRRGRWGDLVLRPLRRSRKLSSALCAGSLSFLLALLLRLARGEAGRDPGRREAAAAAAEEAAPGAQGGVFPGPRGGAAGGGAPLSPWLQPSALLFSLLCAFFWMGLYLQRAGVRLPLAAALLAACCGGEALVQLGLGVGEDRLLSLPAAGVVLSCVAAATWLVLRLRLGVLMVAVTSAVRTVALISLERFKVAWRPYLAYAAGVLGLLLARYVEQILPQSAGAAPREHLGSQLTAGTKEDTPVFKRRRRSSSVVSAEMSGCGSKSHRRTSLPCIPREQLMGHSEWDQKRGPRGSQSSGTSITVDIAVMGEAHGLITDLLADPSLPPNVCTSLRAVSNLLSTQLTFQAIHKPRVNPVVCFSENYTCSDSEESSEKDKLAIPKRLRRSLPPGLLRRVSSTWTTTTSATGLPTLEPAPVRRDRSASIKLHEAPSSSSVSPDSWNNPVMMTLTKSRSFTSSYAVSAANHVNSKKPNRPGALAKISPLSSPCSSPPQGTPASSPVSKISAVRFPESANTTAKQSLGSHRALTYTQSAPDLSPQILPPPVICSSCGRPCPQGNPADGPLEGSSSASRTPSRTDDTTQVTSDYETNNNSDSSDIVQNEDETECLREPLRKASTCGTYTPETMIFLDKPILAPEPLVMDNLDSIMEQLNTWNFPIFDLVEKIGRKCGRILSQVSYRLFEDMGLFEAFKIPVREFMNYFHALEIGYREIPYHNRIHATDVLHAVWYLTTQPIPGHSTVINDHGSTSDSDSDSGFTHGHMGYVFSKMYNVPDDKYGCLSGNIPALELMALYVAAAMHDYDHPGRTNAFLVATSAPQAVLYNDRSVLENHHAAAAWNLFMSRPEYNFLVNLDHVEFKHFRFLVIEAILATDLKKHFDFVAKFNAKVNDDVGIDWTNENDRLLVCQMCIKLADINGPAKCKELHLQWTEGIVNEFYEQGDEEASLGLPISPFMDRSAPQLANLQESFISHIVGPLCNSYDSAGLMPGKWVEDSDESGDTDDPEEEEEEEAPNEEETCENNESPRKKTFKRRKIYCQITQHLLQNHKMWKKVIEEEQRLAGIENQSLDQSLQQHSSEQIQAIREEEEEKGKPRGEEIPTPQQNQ
Description: PDE Inhibiting Activity, type III. It is filed as biochemical, dog (canine aorta). As to the method:
as §2
(§3) The thus obtained PDE types V, III and I were measured for their activity in accordance with the method of Thompson et al. (Adv. Cyclic Nucleotide Res., 10, 69-72, 1979) and the method of Wells et al. (Biochim. Biophys. Acta, 384, 430-443, 1975). Specifically, a purified PDE sample was added to 50 mM Tris-HCl buffer solution (pH 7.5) containing 1 μM of substrate cGMP or cAMP (containing tritium-labelled cGMP or cAMP), 1 mM EGTA and 2 mM magnesium acetate. For PDE activity measurement, enzymatically produced 5' GMP or 5' AMP was further hydrolyzed into guanosine or adenosine with snake venom and separated from the substrate by means of an ion-exchange resin (Dowex 1-X2), followed by measuring with a scintillation counter. The activity of each test compound was determined as a percentage of the DPE activity measured when it was added as a dimethyl sulfoxide solution (DMSO) and its IC50 (50% inhibition concentration) was calculated by the probit method. The final concentration of DMSO was adjusted to be no more than 2% in consideration of the effect on PDE activity.

Assay [5] relates to PDE type I. The assay can be described thus: PDE Inhibiting Activity, type I. It is filed as biochemical, dog (canine aorta). The following applies: PDE type I from canine aorta, 1 μM substrate, pH 7.5; read-out: Inhibition Activity IC50, Type I. As to the method:
as §2, §3

Assay [6] deals with vascular smooth muscle cells isolated from aortic media. The following applies: Garg et al. 1989; Nakaki et al. 1990; cited from earlier work.
Assay [7] relates to pulmonary arterial pressure. The assay can be described thus: Pulmonary Arterial Pressure Lowering Action in anesthetized dogs. It is filed as in vivo, adult mongrel dogs. The note with it: for inhibition in vivo at 0.3 mg/kg: 0.3 mg/kg intravenous, maximal percent decrease. The method, then: (§4) Adult mongrel dogs were anesthetized by intramuscular administration of 20 mg/kg of ketamine and intravenous administration of 20 mL/kg of physiological saline containing 5 mg/mL of α-chloralose; under artificial respiration, the aortic pressure was measured with a catheter inserted into the femoral artery and the pulmonary arterial pressure with a Swan-Ganz catheter inserted into the pulmonary artery. Anesthesia was maintained by intravenous administration of physiological saline containing 5 mg/mL of α-chloralose at a rate of 5 mL/kg per hour. Comparison was made between nitroglycerin, nifedipine and test compounds which were administered intravenously at doses of 0.01-1 mg/kg. Each test compound was dissolved in dimethylformamide (DMF) and sequentially diluted with polyethylene glycol 200 and water to give respective proportions of 20, 50 and 30% (v/v) and administrated by injection into the right femoral vein in a volume of 0.3 mL/kg. The results are shown in Table 2 below, in which maximal percent decreases in the pulmonary arterial pressure and aortic pressure are listed to show the effectiveness of each test compound in lowering the pulmonary arterial pressure and the systemic blood pressure, respectively.

Assay [8] has as its system systemic blood pressure. The assay can be described thus: Systemic blood (aortic) pressure lowering in anesthetized dogs. It is filed as in vivo, adult mongrel dogs. The following applies: Canis lupus familiaris, iv, read-out: Reduction in systemic blood pressure; for inhibition in vivo at 0.3 mg/kg: 0.3 mg/kg intravenous, anesthetized dogs, maximal percent decrease. As to the method: as §4

Where [9] appears, read: PDE type III from canine aorta, 1 μM substrate, pH 7.5, read-out: Inhibition Activity IC50, Type III.
Where [10] appears, read: Canis lupus familiaris, iv, anesthetized dogs, read-out: Reduction in pulmonary arterial pressure.

Regarding `OCCN(CCO)c1nc(N2CCCCC2)c2nc(N(CCO)CCO)nc(N3CCCCC3)c2n1` [Dipyridamole, dipyridamole, reference compound], in assay [1] (0.03 mg/kg intravenous), the “Coronary artery diameter (relative to nitroglycerin)” value was 0.17. In addition, the “coronary artery diameter versus coronary blood flow (in words)” value in assay [1] (intravenous, anesthetized dogs) was “increased more of the coronary blood flow than the coronary artery diameter”. In assay [2] (0.03 mg/kg intravenous), the “Coronary blood flow (relative to nitroglycerin)” value came to 2.66.
As to `CCCOC(=O)COc1cc2c(=O)c(Cc3cccnc3)cn3c4ccc(Br)cc4c(c1)c23` [Example 7, 10-bromo-2-n-propoxycarbonylmethyloxy-5-(3-pyridylmethyl)-4H-pyrido [3,2,1-jk]carbazole-4-one], the IC50 (in general, the concentration needed to halve the response being measured) in assay [3] was 0.0043 µM; in assay [4] (setting [9]) it was greater than 30 µM; in assay [5] it was greater than 30 µM.
Consider `Nc1nc2c(nc(Br)n2[C@@H]2O[C@@H]3COP(=O)(O)O[C@H]3[C@H]2O)c(=O)[nH]1` [Example 8-bromo-cGMP, 8-bromo-cGMP], for which the “proliferation of cultured vascular smooth muscle cells (in words)” value in assay [6] is given as “suppressed”.
Consider `O=C(COc1cc2c(=O)c(Cc3cccnc3)cn3c4ccc(Br)cc4c(c1)c23)OC1CCCCC1` [Example 15], for which the values for the IC50 in assay [3], in assay [4] (setting [9]) and in assay [5] were 0.045 µM, 15 µM and greater than 30 µM, respectively.
Turning to `CCNC(=O)COc1cc2c(=O)c(Cc3cccnc3)cn3c4cc(Br)ccc4c(c1)c23` [Example 109, 9-bromo-2-(N-ethylcarbamoylmethyloxy)-5-(3-pyridylmethyl)-4H-pyrido [3,2,1-jk]carbazole-4-one], the IC50 in assay [4] was 14 µM; in assay [5], greater than 30 µM. For the same compound, the inhibition in vivo at 0.3 mg/kg in assay [7] (setting [10]) was determined as 19%; in assay [8] it was 11%.
Take `O=c1c(Cc2cccnc2)cn2c3cc(Br)ccc3c3cc(OCCCO)cc1c32` [Example 110, 9-bromo-2-(3-hydroxypropyloxy)-5-(3-pyridylmethyl)-4H-pyrido [3,2,1-jk]carbazole-4-one]: the IC50 in assay [4] (setting [9]) was 10 µM; in assay [5] it was greater than 30 µM. Besides, the figures for the inhibition in vivo at 0.3 mg/kg in assay [7] (setting [10]) and in assay [8] were 23% and 7%, respectively.
With `O=c1c(Cc2cccnc2)cn2c3ccccc3c3cc(O)cc1c32` [Example 155], the IC50 in assay [4] (setting [9]) stood at 7.3 µM; in assay [5], 48 µM. In addition, in assay [1] (1 mg/kg intravenous), the “Coronary artery diameter (relative to nitroglycerin)” value is given as 1.47. The “Coronary blood flow (relative to nitroglycerin)” value in assay [2] (1 mg/kg intravenous) worked out at 0.79.
With `O=c1ccn2c3ccc(Cl)cc3c3cccc1c32` [Example 193, 10-chloro-4H-pyrido[3,2,1-jk]carbazole-4-one], the IC50 in assay [4] (setting [9]) was 6.9 µM; in assay [5], greater than 100 µM. The inhibition in vivo at 0.3 mg/kg in assay [7] (setting [10]) was 16%; in assay [8], 1%. Further, in assay [1] (1 mg/kg intravenous), the “Coronary artery diameter (relative to nitroglycerin)” value is listed as 1.44. For the same compound, the “Coronary blood flow (relative to nitroglycerin)” value in assay [2] (1 mg/kg intravenous) is on record as 1.40.
In the case of `O=c1ccn2c3ccc(Cl)cc3c3cc(Cl)cc1c32` [Example 264, 2,10-dichlor-4H-pyrido[3,2,1-jk]carbazole-4-one], the IC50 was 0.08 µM in assay [3], greater than 30 µM in assay [4] (setting [9]) and greater than 30 µM in assay [5].
Take `O=c1c(Cc2cccnc2)cn2c3cc(Br)ccc3c3cc(OCCCO)cc1c32` [Example 278, 9-bromo-2-(3-hydroxyoropyloxy)-5-(3-pyridylmethyl)-4H-pyrido[3,2,1-jk]carbazole-4-one hydrochloride]: the “Coronary artery diameter (relative to nitroglycerin)” value in assay [1] (1 mg/kg intravenous) was 1.50. Besides, the “Coronary blood flow (relative to nitroglycerin)” value in assay [2] (1 mg/kg intravenous) was 0.04.
In the case of `O=[N+]([O-])OCC(CO[N+](=O)[O-])O[N+](=O)[O-]` [Nitroglycerin, nitroglycerin, reference compound], the inhibition in vivo at 0.01 mg/kg turned out to be 19% in assay [7] (Canis lupus familiaris, iv, read-out: Reduction in pulmonary arterial pressure) and 30% in assay [8]. Further, the “pulmonary arterial versus systemic blood pressure lowering (in words)” value in assay [7] (intravenous, anesthetized dogs) is “lowered the systemic blood pressure by greater degrees than the pulmonary arterial pressure”. The “proliferation of cultured vascular smooth muscle cells (in words)” value in assay [6] was “suppressed”.

Source of the values: patent publication US6197768A, “Pyridocarbazole derivatives having cgmp-pde inhibitory activity” (Mochida Pharmaceutical Co., Ltd., priority 1996, dated 2001).
